From paper PMC6754302 (Cell chemical biology, 2019)
Entries after “also recorded” stand apart in the source; their conditions may differ. Each block holds one molecule with its values, some of them ahead of it.

What was measured:
pro-C6 (C6 zymogen) [1] = target: T1, pro-C6 (C6 zymogen) (Homo sapiens, UniProt P55212); assay: LE22 labelling of C6 in lysates of transfected COS-7 cells; type: cell-based
T1 sequence (P55212 1-293): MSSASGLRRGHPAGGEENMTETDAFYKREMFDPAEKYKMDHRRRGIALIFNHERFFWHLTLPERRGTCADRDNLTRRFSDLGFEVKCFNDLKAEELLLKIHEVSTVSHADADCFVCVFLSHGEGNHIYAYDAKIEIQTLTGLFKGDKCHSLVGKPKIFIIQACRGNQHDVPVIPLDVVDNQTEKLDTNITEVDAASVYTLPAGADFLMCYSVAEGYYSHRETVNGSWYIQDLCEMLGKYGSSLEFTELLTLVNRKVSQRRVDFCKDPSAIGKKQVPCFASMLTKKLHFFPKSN

pro-C6 (C6 zymogen) [2] = assay: as above; type: cell-based, human; conditions: 10 μM in the culture medium, co-transfection with mHTT1–586
caspase-6 (C6) [3] = target: T2, caspase-6 (C6) (Homo sapiens, UniProt P55212); assay: TR-FRET-based C6 activity assay with HTT1–1212 as substrate; type: biochemical; conditions: for shift of dose-response curve with pre-incubation time: 0 min vs 60 min pre-incubation of C6 with compound
T2 sequence (P55212 24-179 limits assumed): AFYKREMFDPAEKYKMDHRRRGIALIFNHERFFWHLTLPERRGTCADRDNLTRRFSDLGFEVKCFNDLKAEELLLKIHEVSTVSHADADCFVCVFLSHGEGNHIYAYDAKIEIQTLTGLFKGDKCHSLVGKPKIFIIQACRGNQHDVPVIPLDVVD
T2 sequence (P55212 194-293 limits assumed): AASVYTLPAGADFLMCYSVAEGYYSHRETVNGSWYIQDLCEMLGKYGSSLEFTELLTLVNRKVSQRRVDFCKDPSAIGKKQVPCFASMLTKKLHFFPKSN

[4] = target: T3, intracellular C6 activity (Homo sapiens, UniProt P55212); assay: Intracellular lamin A cleavage ELISA; type: cell-based
T3 sequence (P55212 24-293): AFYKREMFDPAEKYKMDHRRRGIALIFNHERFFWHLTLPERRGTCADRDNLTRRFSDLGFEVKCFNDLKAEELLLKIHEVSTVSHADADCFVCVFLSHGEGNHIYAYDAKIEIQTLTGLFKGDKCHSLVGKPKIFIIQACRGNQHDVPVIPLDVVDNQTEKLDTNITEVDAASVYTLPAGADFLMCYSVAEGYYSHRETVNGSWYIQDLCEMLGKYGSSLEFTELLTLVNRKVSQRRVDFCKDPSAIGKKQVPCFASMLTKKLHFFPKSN

Recombinant C6 enzyme [5] = target: T4, Recombinant C6 enzyme (Homo sapiens, UniProt P55212); assay: Washout experiment; type: biochemical; conditions: read-out: inhibition of C6 activity after washout
T4 sequence (P55212 24-179 limits assumed): T2 sequence (P55212 24-179 limits assumed)
T4 sequence (P55212 194-293 limits assumed): T2 sequence (P55212 194-293 limits assumed)

caspase-6 (C6) [6] = target: T2, caspase-6 (C6); assay: C6 activity assay using the VEID-AFC peptide as a substrate; type: biochemical
C6 = target: T5, C6 (Homo sapiens, UniProt P55212); type: cell-based; conditions: for intracellular C6-mediated cleavage of HTT1–1212 (HTT1–586 fragment): COS-7 cells co-transfected with C6 and HTT1–1212, compound in the media
T5 sequence (P55212 24-293): T3 sequence (P55212 24-293)

C6-HTT interaction = target: T6, C6-HTT interaction (Homo sapiens, UniProt P55212); assay: Co-immunoprecipitation of HTT with DDK-tagged C6 from co-transfected COS-7 cells; type: cell-based
T6 sequence (P55212 24-293): T3 sequence (P55212 24-293)

Recombinant C6 enzyme [7] = target: T4, Recombinant C6 enzyme; conditions: 10 μM inhibitor

mHTT1–586-induced increase of LE22 binding to pro-C6 (C6wt) (pro-C6 (C6 zymogen) [1]; 10 μM in the culture medium, co-transfection with mHTT1–586): completely reversed
inhibition of HTT proteolysis (caspase-6 (C6) [3]): strong inhibition
shift of dose-response curve with pre-incubation time (caspase-6 (C6) [3]): shift towards a lower IC50 value
inhibition of lamin A proteolysis [4]: strong inhibition
inhibition at 10 µM (Recombinant C6 enzyme [5]): 100%
inhibitory effect on C6-mediated cleavage of small peptide substrates (VEID-AFC) (caspase-6 (C6) [6]): minimal inhibitory effect
intracellular C6-mediated cleavage of HTT1–1212 (HTT1–586 fragment) (C6): inhibited
reduction in HTT co-immunoprecipitation (C6-HTT interaction; PG3d 10 μM in the media, mHTT1–1212): 50%
Molecule: O=c1oc(C#Cc2ccccc2)nc(O)c1Cc1ccccc1 [PG3d, 5-Benzyl-4-hydroxy-2-(phenylethynyl)-6H-1,3-oxazin-6-one]
LE22 labelling for deltaPro and D23A C6 (pro-C6 (C6 zymogen) [2]): normalized the amount of LE22 labelling
LE22 labelling of C6 after inhibitor pre-incubation (Recombinant C6 enzyme [7]): did not block accessibility of the active site

proportion of pro-C6 and p18-C6 labelled with LE22 (pro-C6 (C6 zymogen) [1]; C6-transfected cells treated with Q-VD-OPh prior to lysis): decreased
intracellular C6-mediated cleavage of HTT1–1212 (HTT1–586 fragment) (C6): lowers HTT1–586 fragment levels
Molecule: CC(C)[C@H](NC(=O)c1ccc2ccccc2n1)C(=O)N[C@@H](CC(=O)O)C(=O)COc1c(F)cccc1F [Q-VD-OPh]
intracellular generation of active C6 subunits (p18) (C6; COS-7 cells co-transfected with C6 and HTT1–1212, Q-VD-OPh 3 μM): reduces the intracellular generation of active C6 subunits
effect on co-immunoprecipitation of HTT with C6 (C6-HTT interaction; Q-VD-OPh 3 μM): not prevented; also recorded: no significant difference

shift of dose-response curve with pre-incubation time (caspase-6 (C6) [3]): did not exhibit time-dependent behaviour
Molecule: VDVAD-CHO [reference compound]
LE22 labelling of C6 after inhibitor pre-incubation (Recombinant C6 enzyme [7]): is replaced by the irreversible binding of the LE22 probe

LE22 labelling of C6 after inhibitor pre-incubation (Recombinant C6 enzyme [7]): prevented labelling of C6 with LE22
Molecule: zVAD-fmk
